Data taken from patent US9623031B2, “Compositions, methods and kits for treating cancer” (priority 2011, dated 2017).

How the values were obtained:
LSCs = test: Apoptosis of LSCs as summarised in the discussion (model not specified or both models); format: cell-based, mouse
Procedure: Apoptosis of LSCs was performed using annexin V as described below in Supplementary Information and Methods.
The LSCs were diluted in DMEM, resuspended using a 16-gauge needle, and collected by centrifugation. 1×10^5 cells were resuspended in 200 μl of binding buffer (0.1 M HEPES with 1.4 M NaCl, 25 mM CaCl2, pH 7.4). Annexin V FITC (BD Biosciences) was incubated with cells for 15 min on ice followed by flow cytometric analysis.

[1] = test system: Friend virus (FV)-induced erythroleukemia; test: FV-induced erythroleukemia in FV-infected mice, intraperitoneal treatment; format: in vivo, mouse
Excerpt: FV-induced erythroleukemia and production of FV leukemia stem cells (FV-LSCs): BALB/c mice were infected with FV as previously described (Subramanian A et al., J Virol. 2008; 82:382-393; Harandi O F et al., J Clin Invest. 2010; 120:4507-4519). On day 14 after infection, spleens were isolated and a single cell suspension of spleen cells was generated. The cells were filtered through a 70 μm sterile filter and flow-through cells were resuspended in RBC lysis buffer followed by centrifugation. Leukemia stem cells were isolated by FACS. Spleen cells were labeled with anti-Kit, Sca1 (BioLegend, San Diego, Calif.) and M34 antibodies. M34 is a monoclonal antibody that recognizes the envelope protein of SFFV (Chesebro B et al., Virology. 1981; 112:131-144) and was used as previously described (Subramanian A et al., J Virol. 2008; 82:382-393). As indicated M34^+Kit^+Sca1^+ cells were cultured in Methocult media (Stem Cell Technologies Vancouver BC) M3334 supplemented with 200 ng/ml Sonic Hedgehog (Shh), 15 ng/ml bone morphogenetic protein-4 (BMP4) (both from R&D Systems Minneapolis, Minn.), and 50 ng/ml stem cell factor (SCF; Peprotech). For CFU-FV assays, cells were plated in methylcellulose media containing fetal calf serum, but lacking added growth factors as previously described (Mager D L et al., Proc Natl Acad Sci USA. 1981; 78:1703-1707).
Complete blood counts of mice treated with Δ^12-PGJ3 (0.05 mg/kg) were examined. There is no difference in treated mice and untransplanted control mice in terms of white blood cell counts, red blood cell counts or platelet counts. Changes in hematological parameters in FV-infected mice upon treatment with CyPGs were examined. FV-infected Balb/c mice were treated with Δ^12-PGJ3 (0.05 mg/kg) intraperitoneally for 7 d following which the mice were sacrificed and hematological parameters were analyzed on an Advia blood analyzer. FV-infected Δ^12-PGJ3 treated mice were compared to infected vehicle controls. N=5 per group, all data are means±s.e.m. *P<0.05. 3% w/v hydroxypropyl-3-cyclodextrin was used as a vehicle in in vivo experiments. Spleen sizes of FV-infected mice that were treated with either vehicle, 9,10-dihydro-15d-PGJ2 (0.05 mg/kg), or 15d-PGJ2 (0.05 mg/kg) were examined; N=3 pre group. Hematological parameters of Balb/c uninfected, infected, and 15d-PGJ2 treated mice were examined. N=5 per group. All data were means±s.e.m. *P<0.05.
FV-LSC were targeted by 15d-PGJ2 in the spleen of FV-infected mice. FV-infected mice were treated with 15d-PGJ2 or 9,10-dihydro-15d-PGJ2 at 0.05 mg/kg for 7 d. The splenic LSC (M34^+Sca1^+Kit^+) cells were analyzed by flow cytometry on day 14 post infection. […] Uninfected and infected vehicle controls were used for comparison. N=3; *P<0.05. […] The colonies were counted 10-14 days after plating. N=3 mice per group, *p<0.05.

[2] = test system: MSCV-GFP^+ HSC transplanted mice (steady state hematopoiesis); test: Control mice transplanted with MSCV-GFP+ HSCs, treated; conditions: mouse, in vivo
Procedure: Induction of CML using MIGR-BCR-ABL retrovirus: MIGR-BCR-ABL and control MSCV-GFP retroviruses were obtained. […] C57BL/6 mice were treated with 5-fluorouracil (5-FU; 150 mg/Kg, Sigma, St. Louis, Mo.) to enrich for cycling HSCs. On day four after treatment bone marrow cells were harvested and infected with MIGR-BCR-ABL or MSCV-GFP control virus overnight in IMDM media containing 5% FCS and supplemented with 2.5 ng/ml IL-3 and 15 ng/ml SCF (R&D Systems Minneapolis, Minn.). 0.5×10^6 transduced cells were transplanted by retro-orbital injection into C57BL/6 recipient mice that were preconditioned with 950 Rads of irradiation. In order to increase the number of CML and control mice, 17 days after transplant GFP^+ spleen cells were isolated by FACS and 1×10^5 GFP^+ cells were transplanted into irradiated (950 Rads) secondary C57BL/6 recipients. Two weeks after transplant, mice were treated as indicated with CyPGs and vehicle control. For ex-vivo experiments, Kit^+Sca1^+Lin^−GFP^+ cells were isolated from the bone marrow or spleen of transplanted mice by FACS. The sorted cells were cultured in Methocult media M3334 (Stem Cell Technologies Vancouver BC) M3334 supplemented with Shh, SCF, and BMP4 and treated with the indicated CyPGs and vehicle controls for indicated time periods. […] The hematopoietic colonies (colony forming cells in culture, CFC) were scored. […]

p53 = p53 expression in BCR-ABL+ LSCs treated ex vivo; format: cell-based, mouse; conditions: 25 nM ex vivo
[3] = molecular target: T1, ligand-binding domain of human PPAPγ fused to yeast GAL4 DNA binding domain (Homo sapiens, UniProt P37231); test: PPARγ reporter assay in HEK293T cells (GAL4 fusion, pGalRE-Luc); format: cell-based; conditions: 0.01 μM to 1.0 μM
T1 construct: expressed in transfected cells; host or cells: HEK293T
T1 sequence (P37231 238-503 limits assumed): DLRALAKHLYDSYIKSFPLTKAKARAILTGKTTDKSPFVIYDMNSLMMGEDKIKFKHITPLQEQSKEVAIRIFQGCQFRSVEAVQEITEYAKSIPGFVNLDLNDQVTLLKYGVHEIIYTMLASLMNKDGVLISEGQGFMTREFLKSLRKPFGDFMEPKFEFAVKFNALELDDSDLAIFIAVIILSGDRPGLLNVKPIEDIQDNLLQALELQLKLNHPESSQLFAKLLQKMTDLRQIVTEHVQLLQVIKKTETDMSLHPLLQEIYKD

[4] = test system: primary human AML cells; LSCs (CD34+CD38−CD123+); test: Apoptosis of primary human AML cells and AML LSCs (annexin V); format: cell-based
Procedure: In this experiment, 110,000/well primary AML cells were cultured in above specified media for 6 and 12 hrs. Cells were collected and washed once with ice cold PBS. The cells were resuspended in 200 ul 1× Apoptosis buffer with annexin-V PE to all tubes. The cells were washed in PBS and resuspended in 600 ul PBS and transfer into flow tubes and analyzed for apoptosis (Annexin V+ cells) on FC-500. […] In this experiment, 110,000/well AML cells were cultured in earlier mentioned media for 6 and 12 hrs. Cells were collected and washed once in PBS and resuspended in 200 ul PBS and blocked with FC receptor antibody 10 mins RT. The following antibodies were added: CD38, CD123, CD34, CD117 (BD bioscience) for 1 hr on ice. Cells were washed in PBS once and resuspended in 200 ul of apoptotic buffer, and annexin V was added and incubated for 15 mins. Apoptotic cells (Annexin V+ cells) were counted by flow cytometry. […] Cells were collected and washed once in PBS and resuspended in 200 ul PBS and blocked with FC receptor antibody 10 mins RT. The following antibodies were added: CD38, CD123, CD34 (BD bioscience) for 1 hr on ice. Cells were washed in PBS once and resuspended in 200 ul of apoptotic buffer, and annexin V was added and incubated for 15 mins. Apoptotic cells (Annexin V+ cells) were counted by flow cytometry.
Referring to the results shown in FIG. 16, these experiments were performed with primary AML stem cells isolated from a patient. […] In an identical experiment, the cells were also treated with a synthetic DP agonist, ZK118182 (100 nM). Apoptosis of cells (by annexin V staining) was measured using flow cytometry.

Survivin = Survivin expression in human AML sample (RT-PCR); format: cell-based; conditions: 6 h
Procedure: Survivin expression in the human AML sample post Δ^12-PGJ3 treatments was examined. Total RNA was isolated from AML cells with indicated treatments (for 6 h) using Trizol (Invitrogen) cDNA was generated using Superscript II (Invitrogen) and cDNA were quantified by RT-PCR using SYBR green PCR master mix and primers that amplify a 76 nt PCR product. A Taqman probe for GAPDH (Applied biosystems) was used.

[5] = test system: FV-LSCs transplanted into BALB/c-Stk^−/− mice
Procedure: Transplant of FV-LSCs into BALB/c-Stk^−/− mice: FV-LSCs were generated as described above. 2.5×10^5 FV-LSCs were transplanted into BALB/c-Stk^−/− mice by retro-orbital injection. Six weeks after transplant the mice were treated with CyPGs or vehicle control as indicated in the text.
Treatment of Mice with PGs: Mice with FV-induced erythroleukemia or MIGR-BCR-ABL induced CML were treated on the indicated days with CyPGs. Mice were treated with a daily intraperitoneal injection of Δ^12-PGJ3 (0.01-0.1 mg/kg), 15d-PGJ2 (0.1 mg/kg), or 9,10-dihydro-15d-PGJ2 (0.1 mg/kg) for 7 days. All three compounds were formulated with hydroxypropyl-β-cyclodextrin (30% w/v; Sigma; vehicle control).
Stk^−/− mice are resistant to Friend virus infection so the leukemia developed by the transplanted mice is result of the transplanted LSCs and not FV infection. […] LSCs sorted from the spleens of FV-infected mice were transplanted into Stk^−/− mice (on a Balb/c background). After 6 weeks such mice were treated daily for 1 week with vehicle (hydroxypropyl-β-cyclodextrin), 15d-PGJ2 (0.05 mg/kg), or 9,10-dihydro-15d-PGJ2 (0.05 mg/kg) by intraperitoneal injection. The mice were sacrificed 51 days post LSC transplantation for analysis. An analysis of spleens of mice comparing splenomegaly in vehicle, 15d-PGJ2, or 9,10-dihydro-15d-PGJ2 treated transplanted mice was performed. Spleen weight compared to control (untransplanted mice) after treatment and WBC counts in the peripheral blood of the mice after treatment were examined, and a flow cytometric analysis of the spleen of untransplanted and LSC transplanted mice after treatment was performed. All data were mean±s.e.m. *p<0.05 compared to control or 9,10-dihydro-15d-PGJ2 treated groups. N=5 per group.

CC/C=C\C[C@H](O)C/C=C1/C(=O)C=C[C@@H]1C/C=C\CCCC(=O)O [Δ^12-PGJ3, Δ^12-prostaglandin J3]
targeting of LSCs for apoptosis (LSCs; FV-induced leukemia and BCR-ABL+ retrovirus-based murine CML model): targeted LSCs for apoptosis
IC50 (LSCs; LSC type not specified, read-out: IC50, concentration required to cause apoptosis of LSCs): 7 nM
reduction of splenomegaly ([1]; 0.01 mg/kg/day i.p. for 7 days): ~50%
LSCs (Sca1+Kit+M34+) in the spleen ([1]; 0.05 mg/kg i.p. 7 d, flow cytometry day 14 post infection): completely eradicated
splenomegaly ([1]; 0.05 and 0.1 mg/kg/day i.p. for 7 days from day 7 post infection): no signs of splenomegaly
spleen histology (H&E) ([1]; day 14 post infection): better demarcation of peri-arteriolar lymphoid tissue
total leukocyte and reticulocyte counts ([1]; i.p. 7 days): decreased to normal levels
Bax expression in spleen ([1]; mouse, in vivo): activation of Bax expression
Friend virus viral replication ([1]; mouse, in vivo): not the viral replication
TUNEL staining of splenic sections ([1]; mouse, in vivo): increased apoptosis
CFU-FV colony formation ([1]; spleen cells of treated mice plated without growth factors): completely reduced to background levels
p53 expression in total spleen ([1]; treated for 1 week): significant expression of p53 in the spleen
WBC counts, other hematological parameters, survival [2]: had no effect on WBC counts or other hematological parameters or survival
p53 mRNA (p53): increase in p53 transcription
PPARγ activation in reporter assay [3]: unable to activate PPARγ
apoptosis of AML LSCs (Annexin V+ fraction of CD34+CD38−CD123+ cells) ([4]; 100 nM, 6 h, patients #100810, #123009, #033107, #041909, #101308): targeted the LSCs in all these samples
apoptosis of primary human AML cells (Annexin V+) ([4]; 100 nM, 6 and 12 hrs): induces apoptosis of primary human AML cells
apoptosis of primary AML cells from bone marrow of an AML patient (72% CD133+) ([4]; 5, 50, 100 nM, 6 and 24 h, annexin V): effective even in human primary leukemia stem cells
survivin expression (Survivin): decreases the expression of survivin
leukocyte counts ([5]; 0.025 mg/kg and 0.05 mg/kg, 1 week): concomitant decrease in leukocyte counts
hematocrit, WBC counts and reticulocyte counts ([5]; FV-induced leukemia, FIG. 3C): significantly decreased
LSCs (M34+Sca1+Kit+) in the spleen ([5]; flow cytometry after 1 week i.p. treatment): complete ablation
hematological parameters (complete blood counts) versus untransplanted control mice ([5]; mouse, in vivo): does not adversely affect hematological parameters
pChk2 levels in total spleen extracts ([5]; mouse, in vivo): increase in the levels of pChk2
splenomegaly ([5]; Δ^12-PGJ3 0.025 and 0.05 mg/kg, comparators 0.05 mg/kg, i.p. 1 week): significantly decreased splenomegaly
